Laboratory results published in article PMC5218480 (PLoS ONE, 2017).

Tested on: MV-4-11 cells
Assay: Gene expression microarray analysis (Affymetrix PrimeView) and GSEA
Type: cell-based, human
Design: RFU PODN (11730768_x_at) / Fold change /veh PODN (11730768_x_at) / RFU LINC00158 (11744669_a_at) / Fold change /veh LINC00158 (11744669_a_at) / RFU DUSP10 (11751237_a_at) / Fold change /veh DUSP10 (11751237_a_at) / RFU ID3 (11757404_x_at) / Fold change /veh ID3 (11757404_x_at) / RFU PLEKHG5 (11737974_s_at) / Fold change /veh PLEKHG5 (11737974_s_at) / RFU LRRC4B (11730491_at) / Fold change /veh LRRC4B (11730491_at) / RFU GIMAP4 (11747438_a_at) / Fold change /veh GIMAP4 (11747438_a_at) / RFU KRT8 (11758183_x_at) / Fold change /veh KRT8 (11758183_x_at) / RFU CNN1 (11734310_a_at) / Fold change /veh CNN1 (11734310_a_at) / RFU VPS37D (11726825_at) / Fold change /veh VPS37D (11726825_at) / RFU C10orf10 (11716522_x_at) / Fold change /veh C10orf10 (11716522_x_at) / RFU KIR2DL2 /// KIR2DL4 /// KIR2DL5A /// KIR2DL5B /// KIR2DS1 /// KIR2DS2 /// KIR2DS3 /// KIR2DS4 /// KIR3DL3 /// KIR3DL3 /// KIR3DS1 (11738374_at) / Fold change /veh KIR2DL2 /// KIR2DL4 /// KIR2DL5A /// KIR2DL5B /// KIR2DS1 /// KIR2DS2 /// KIR2DS3 /// KIR2DS4 /// KIR3DL3 /// KIR3DL3 /// KIR3DS1 (11738374_at) / RFU C1QL1 (11718748_at) / Fold change /veh C1QL1 (11718748_at) / RFU TMPRSS4 (11747572_a_at) / Fold change /veh TMPRSS4 (11747572_a_at) / RFU HAMP (11756126_x_at) / Fold change /veh HAMP (11756126_x_at) / RFU RNFT2 (11725882_a_at) / Fold change /veh RNFT2 (11725882_a_at) / RFU NR4A2 (11747474_a_at) / Fold change /veh NR4A2 (11747474_a_at) / RFU ABCC12 (11746883_a_at) / Fold change /veh ABCC12 (11746883_a_at) / RFU TMEM136 (11760407_x_at) / Fold change /veh TMEM136 (11760407_x_at) / RFU CLDN22 /// WWC2 (11732394_at) / Fold change /veh CLDN22 /// WWC2 (11732394_at) / RFU HLA-DPB1 (11760878_x_at) / Fold change /veh HLA-DPB1 (11760878_x_at) / RFU SPINT1 (11716480_a_at) / Fold change /veh SPINT1 (11716480_a_at) / RFU GAP43 (11754022_s_at) / Fold change /veh GAP43 (11754022_s_at) / RFU A4GNT (11735810_at) / Fold change /veh A4GNT (11735810_at) / RFU PRB3 (11715151_x_at) / Fold change /veh PRB3 (11715151_x_at) / RFU TUBB4B (11761932_at) / Fold change /veh TUBB4B (11761932_at) / RFU CAPN14 (11732068_a_at) / Fold change /veh CAPN14 (11732068_a_at) / RFU TMCC2 (11721928_a_at) / Fold change /veh TMCC2 (11721928_a_at) / RFU IRGQ (11745062_a_at) / Fold change /veh IRGQ (11745062_a_at) / RFU FAM174B (11720279_a_at) / Fold change /veh FAM174B (11720279_a_at) / RFU TMPRSS4 (11748680_a_at) / Fold change /veh TMPRSS4 (11748680_a_at) / RFU FAM212B (11763350_a_at) / Fold change /veh FAM212B (11763350_a_at) / RFU PLEKHG5 (11743358_a_at) / Fold change /veh PLEKHG5 (11743358_a_at) / RFU ZSCAN30 (11745921_a_at) / Fold change /veh ZSCAN30 (11745921_a_at) / RFU CMKLR1 (11741424_a_at) / Fold change /veh CMKLR1 (11741424_a_at) / RFU LOC101060620 /// MAPK8IP1 (11723275_at) / Fold change /veh LOC101060620 /// MAPK8IP1 (11723275_at) / RFU SPTSSB (11747773_x_at) / Fold change /veh SPTSSB (11747773_x_at) / RFU PRSS12 (11739890_at) / Fold change /veh PRSS12 (11739890_at) / RFU BIN1 (11741810_x_at) / Fold change /veh BIN1 (11741810_x_at) / RFU WNT11 (11732464_a_at) / Fold change /veh WNT11 (11732464_a_at) / RFU C10orf10 (11716521_a_at) / Fold change /veh C10orf10 (11716521_a_at) / RFU C5orf56 (11738089_at) / Fold change /veh C5orf56 (11738089_at) / RFU CYB561 (11721691_x_at) / Fold change /veh CYB561 (11721691_x_at) / RFU ANKRD19P (11752326_a_at) / Fold change /veh ANKRD19P (11752326_a_at) / RFU OR2T12 /// OR2T33 /// OR2T8 (11738714_s_at) / Fold change /veh OR2T12 /// OR2T33 /// OR2T8 (11738714_s_at) / RFU VCAN (11748164_a_at) / Fold change /veh VCAN (11748164_a_at) / RFU JSRP1 (11732532_at) / Fold change /veh JSRP1 (11732532_at) / RFU KRTAP10-11 (11738290_x_at) / Fold change /veh KRTAP10-11 (11738290_x_at) / RFU MYO3A (11730013_a_at) / Fold change /veh MYO3A (11730013_a_at) / RFU EBF3 (11725865_a_at) / Fold change /veh EBF3 (11725865_a_at) / RFU CAMK2N1 (11719241_x_at) / Fold change /veh CAMK2N1 (11719241_x_at) / RFU C5orf56 (11738088_a_at) / Fold change /veh C5orf56 (11738088_a_at) / RFU OLFML3 (11715873_a_at) / Fold change /veh OLFML3 (11715873_a_at) / RFU LOC100653217 /// NTM (11731650_a_at) / Fold change /veh LOC100653217 /// NTM (11731650_a_at) / RFU MAPK11 (11762145_a_at) / Fold change /veh MAPK11 (11762145_a_at) / RFU FIZ1 (11724087_x_at) / Fold change /veh FIZ1 (11724087_x_at) / RFU OASL (11726364_x_at) / Fold change /veh OASL (11726364_x_at) / RFU SOX15 (11748057_x_at) / Fold change /veh SOX15 (11748057_x_at) / RFU CD79A (11719716_a_at) / Fold change /veh CD79A (11719716_a_at) / RFU HIST1H1D (11736915_at) / Fold change /veh HIST1H1D (11736915_at) / RFU CASKIN2 (11723855_a_at) / Fold change /veh CASKIN2 (11723855_a_at) / RFU LOC730098 (11760151_x_at) / Fold change /veh LOC730098 (11760151_x_at) / RFU OR4N2 (11742367_at) / Fold change /veh OR4N2 (11742367_at) / RFU PRRT2 (11749266_a_at) / Fold change /veh PRRT2 (11749266_a_at) / RFU SNX32 (11753110_a_at) / Fold change /veh SNX32 (11753110_a_at) / RFU CDHR5 (11726645_a_at) / Fold change /veh CDHR5 (11726645_a_at) / RFU RCAN1 (11760418_a_at) / Fold change /veh RCAN1 (11760418_a_at) / RFU FAM167A (11723789_a_at) / Fold change /veh FAM167A (11723789_a_at) / RFU FAM26E (11764081_at) / Fold change /veh FAM26E (11764081_at) / RFU ISYNA1 (11749810_s_at) / Fold change /veh ISYNA1 (11749810_s_at) / RFU ACY1 (11761880_at) / Fold change /veh ACY1 (11761880_at) / RFU 11764098_at / Fold change /veh 11764098_at / RFU SAMD14 (11745864_x_at) / Fold change /veh SAMD14 (11745864_x_at) / RFU NPB (11741838_a_at) / Fold change /veh NPB (11741838_a_at) / RFU TMPRSS6 (11731388_a_at) / Fold change /veh TMPRSS6 (11731388_a_at) / RFU KRTAP10-2 (11738614_at) / Fold change /veh KRTAP10-2 (11738614_at) / RFU ARHGAP8 /// PRR5-ARHGAP8 (11727945_x_at) / Fold change /veh ARHGAP8 /// PRR5-ARHGAP8 (11727945_x_at) / RFU KRTAP5-7 /// NADSYN1 (11734609_at) / Fold change /veh KRTAP5-7 /// NADSYN1 (11734609_at) / RFU RASL12 (11751679_a_at) / Fold change /veh RASL12 (11751679_a_at) / RFU CDKN2B (11736163_a_at) / Fold change /veh CDKN2B (11736163_a_at) / RFU PRF1 (11729649_at) / Fold change /veh PRF1 (11729649_at) / RFU, ZNF638 /// ZNF638-IT1 / Fold change vs veh, ZNF638 /// ZNF638-IT1 / RFU, PANK3 / Fold change vs veh, PANK3 / RFU, SH3YL1 / Fold change vs veh, SH3YL1 / RFU, ZEB2 / Fold change vs veh, ZEB2 / RFU, NRIP1 / Fold change vs veh, NRIP1 / RFU, PTTG1IP / Fold change vs veh, PTTG1IP / RFU, CAPN2 / Fold change vs veh, CAPN2 / RFU, MED14 / Fold change vs veh, MED14 / RFU, SNORA58 / Fold change vs veh, SNORA58 / RFU, C1orf63 / Fold change vs veh, C1orf63 / RFU, LRRFIP1 / Fold change vs veh, LRRFIP1 / RFU, NDUFAF7 / Fold change vs veh, NDUFAF7 / RFU, SLC12A2 / Fold change vs veh, SLC12A2 / RFU, IBTK / Fold change vs veh, IBTK / RFU, ESF1 / Fold change vs veh, ESF1 / Fold change vs veh, TMEM50B / RFU, TAOK1 / Fold change vs veh, TAOK1 / RFU, ACBD3 / Fold change vs veh, ACBD3 / RFU, TMA16 / Fold change vs veh, TMA16 / RFU, RWDD3 / Fold change vs veh, RWDD3 / RFU, BCAT1 / Fold change vs veh, BCAT1 / RFU, EDEM3 / Fold change vs veh, EDEM3 / RFU, TMEM33 / Fold change vs veh, TMEM33 / RFU, WDR75 / Fold change vs veh, WDR75 / RFU, AHCTF1 / Fold change vs veh, AHCTF1 / RFU, TFRC / Fold change vs veh, TFRC / RFU, ZDHHC17 / Fold change vs veh, ZDHHC17 / RFU, NOM1 / Fold change vs veh, NOM1 / RFU, ARL8B / Fold change vs veh, ARL8B / RFU, ZBTB11 / Fold change vs veh, ZBTB11 / RFU, TAMM41 / Fold change vs veh, TAMM41 / RFU, KIAA1704 /// LOC100996395 / Fold change vs veh, KIAA1704 /// LOC100996395 / RFU, ING1 / Fold change vs veh, ING1 / RFU, TRMT61B / Fold change vs veh, TRMT61B / RFU, FUBP3 / Fold change vs veh, FUBP3 / RFU, TP53 / Fold change vs veh, TP53 / RFU, TNKS2 / Fold change vs veh, TNKS2 / RFU, ZFP14 / Fold change vs veh, ZFP14 / RFU, ACTR2 / Fold change vs veh, ACTR2 / RFU, PPP3R1 / Fold change vs veh, PPP3R1 / RFU, PIK3R1 / Fold change vs veh, PIK3R1 / RFU, HNRNPA1 / Fold change vs veh, HNRNPA1 / RFU, RNF170 / Fold change vs veh, RNF170 / RFU, ZNF28 / Fold change vs veh, ZNF28 / RFU, RNGTT / Fold change vs veh, RNGTT / RFU, OGT / Fold change vs veh, OGT / RFU, BRD1 / Fold change vs veh, BRD1 / RFU, MARS / Fold change vs veh, MARS / RFU, ZNF655 / Fold change vs veh, ZNF655 / RFU, FAHD1 / Fold change vs veh, FAHD1 / RFU, BDP1 / Fold change vs veh, BDP1 / RFU, LRRCC1 / Fold change vs veh, LRRCC1 / RFU, ARID1A / Fold change vs veh, ARID1A / RFU, ZNF146 / Fold change vs veh, ZNF146 / RFU, ZNF330 / Fold change vs veh, ZNF330 / RFU, GPN3 / Fold change vs veh, GPN3 / RFU, C9orf123 / Fold change vs veh, C9orf123 / RFU, N4BP2L2 / Fold change vs veh, N4BP2L2 / RFU, ARFIP1 / Fold change vs veh, ARFIP1 / RFU, FAM179B / Fold change vs veh, FAM179B / RFU, BCL10 / Fold change vs veh, BCL10 / RFU, UHRF1BP1L / Fold change vs veh, UHRF1BP1L / RFU, BET1 / Fold change vs veh, BET1 / RFU, CNOT2 / Fold change vs veh, CNOT2 / RFU, ZNF268 / Fold change vs veh, ZNF268 / Fold change vs veh, ZNF507 / RFU, DGCR2 / Fold change vs veh, DGCR2 / RFU, WDSUB1 / Fold change vs veh, WDSUB1 / Fold change vs veh, HSP90B1 /// MIR3652 / RFU, ADSS / Fold change vs veh, ADSS / RFU, GK / Fold change vs veh, GK / RFU, ZNF148 / Fold change vs veh, ZNF148 / RFU, TAF9 / Fold change vs veh, TAF9 / RFU, SLC1A5 / Fold change vs veh, SLC1A5 / RFU, SLMO2 / Fold change vs veh, SLMO2 / RFU, ABCC4 / Fold change vs veh, ABCC4 / RFU, LOC101060439 /// RAP1B / Fold change vs veh, LOC101060439 /// RAP1B / RFU, RFX7 / Fold change vs veh, RFX7 / RFU, GTPBP10 / Fold change vs veh, GTPBP10 / RFU, CNEP1R1 / Fold change vs veh, CNEP1R1 / RFU, BIVM-ERCC5 /// ERCC5 / Fold change vs veh, BIVM-ERCC5 /// ERCC5 / RFU, ILF3 / Fold change vs veh, ILF3 / RFU 11762660_at / Fold change /veh 11762660_at / RFU VCAN (11757783_s_at) / Fold change /veh VCAN (11757783_s_at) / RFU DDX43 (11728927_at) / Fold change /veh DDX43 (11728927_at) / RFU KRT8 (11758188_x_at) / Fold change /veh KRT8 (11758188_x_at) / RFU NKD1 (11759106_at) / Fold change /veh NKD1 (11759106_at) / RFU SRD5A1 (11742802_a_at) / Fold change /veh SRD5A1 (11742802_a_at) / RFU TPSAB1 /// TPSB2 (11721975_s_at) / Fold change /veh TPSAB1 /// TPSB2 (11721975_s_at) / RFU GSTM3 (11746129_a_at) / Fold change /veh GSTM3 (11746129_a_at) / RFU IL23R (11737362_x_at) / Fold change /veh IL23R (11737362_x_at) / RFU TMEM51 (11727254_a_at) / Fold change /veh TMEM51 (11727254_a_at) / RFU PIWIL2 (11732686_x_at) / Fold change /veh PIWIL2 (11732686_x_at) / RFU ORM1 (11744905_x_at) / Fold change /veh ORM1 (11744905_x_at) / RFU CCDC152 (11743942_at) / Fold change /veh CCDC152 (11743942_at) / RFU ECM1 (11717891_a_at) / Fold change /veh ECM1 (11717891_a_at) / RFU IL23R (11748794_a_at) / Fold change /veh IL23R (11748794_a_at) / RFU TNFAIP8L3 (11732012_x_at) / Fold change /veh TNFAIP8L3 (11732012_x_at) / RFU MBOAT4 (11741988_at) / Fold change /veh MBOAT4 (11741988_at) / RFU 11764193_at / Fold change /veh 11764193_at / RFU TMEM53 (11763286_at) / Fold change /veh TMEM53 (11763286_at) / RFU MAGEB2 (11727129_at) / Fold change /veh MAGEB2 (11727129_at) / RFU TMEM200A (11744735_a_at) / Fold change /veh TMEM200A (11744735_a_at) / RFU CCDC152 (11751479_a_at) / Fold change /veh CCDC152 (11751479_a_at) / RFU FAM211A (11726209_a_at) / Fold change /veh FAM211A (11726209_a_at) / RFU RGS16 (11746705_a_at) / Fold change /veh RGS16 (11746705_a_at) / RFU VCAN (11755009_s_at) / Fold change /veh VCAN (11755009_s_at) / RFU RHOB (11743442_s_at) / Fold change /veh RHOB (11743442_s_at) / RFU RGS16 (11720943_a_at) / Fold change /veh RGS16 (11720943_a_at) / RFU RGS16 (11720944_at) / Fold change /veh RGS16 (11720944_at) / RFU, VPS4B / Fold change vs veh, VPS4B / RFU, CREB1 / Fold change vs veh, CREB1 / RFU, DNAJC13 / Fold change vs veh, DNAJC13 / RFU, GNAQ / Fold change vs veh, GNAQ / RFU, CDK5R1 / Fold change vs veh, CDK5R1 / RFU, ZRANB3 / Fold change vs veh, ZRANB3 / RFU, CUL4A / Fold change vs veh, CUL4A / RFU, CCNY / Fold change vs veh, CCNY / RFU, UFL1 / Fold change vs veh, UFL1 / RFU, COG3 / Fold change vs veh, COG3 / RFU, DIAPH2 / Fold change vs veh, DIAPH2 / RFU, SKA2 / Fold change vs veh, SKA2 / RFU, AFF3 / Fold change vs veh, AFF3 / RFU, LMF1 / Fold change vs veh, LMF1 / RFU, IPO11 / Fold change vs veh, IPO11 / RFU, DFFB / Fold change vs veh, DFFB / RFU, FOXP1 / Fold change vs veh, FOXP1 / RFU, CARD8 / Fold change vs veh, CARD8 / RFU, STRN3 / Fold change vs veh, STRN3 / RFU, ADK / Fold change vs veh, ADK / RFU, RASSF2 / Fold change vs veh, RASSF2 / RFU, WIPF1 / Fold change vs veh, WIPF1 / RFU, LARP1B / Fold change vs veh, LARP1B / RFU, RASA1 / Fold change vs veh, RASA1 / RFU, RB1 / Fold change vs veh, RB1 / RFU, PPFIA1 / Fold change vs veh, PPFIA1 / RFU, MAT2A / Fold change vs veh, MAT2A / RFU, CCT5 / Fold change vs veh, CCT5 / RFU, WDR92 / Fold change vs veh, WDR92 / RFU, CUX1 / Fold change vs veh, CUX1 / RFU, TTC7A / Fold change vs veh, TTC7A / RFU, TMEM135 / Fold change vs veh, TMEM135 / RFU, DEPTOR / Fold change vs veh, DEPTOR / RFU, CPM / Fold change vs veh, CPM / RFU, DNAJB6 / Fold change vs veh, DNAJB6 / RFU, CACNA2D3 / Fold change vs veh, CACNA2D3 / RFU, DTX4 / Fold change vs veh, DTX4 / RFU, TFCP2 / Fold change vs veh, TFCP2 / RFU, GMCL1 /// GMCL1P1 / Fold change vs veh, GMCL1 /// GMCL1P1 / RFU, AEBP2 / Fold change vs veh, AEBP2 / RFU, SNHG1 /// SNORD22 /// SNORD25 /// SNORD26 /// SNORD27 /// SNORD28 /// SNORD29 /// SNORD31 / Fold change vs veh, SNHG1 /// SNORD22 /// SNORD25 /// SNORD26 /// SNORD27 /// SNORD28 /// SNORD29 /// SNORD31 / Fold change (Aza/veh), C12orf56 (ProbeSet 11735607_a_at) / Fold change (ACY-1035/veh), C12orf56 (ProbeSet 11735607_a_at) / Fold change (Aza/veh), FGFR1OP (ProbeSet 11751329_s_at) / Fold change (ACY-1035/veh), FGFR1OP (ProbeSet 11751329_s_at) / Fold change (Aza/veh), VPS36 (ProbeSet 11739960_a_at) / Fold change (ACY-1035/veh), VPS36 (ProbeSet 11739960_a_at) / RFU SYPL1 (11715823_x_at) / Fold change /veh SYPL1 (11715823_x_at) / RFU IGFBP7 (11715501_s_at) / Fold change /veh IGFBP7 (11715501_s_at) / RFU REEP3 (11722064_at) / Fold change /veh REEP3 (11722064_at) / RFU IGLL1 (11728026_x_at) / Fold change /veh IGLL1 (11728026_x_at): dose or concentration left out as unconfirmed
Details: ProbeSet 11743286_at; LIST D

Nc1ccc(-c2cccs2)cc1NC(=O)c1ccc2c(c1)cc(C1CC1)n2CCN1CCOCC1 [ACY-1035]
Fold change vs veh, DTX4: 0.97
